Read-outs that look alike come from different tables or passages of the source.

Among the targets are CAMK2B (Homo sapiens, UniProt Q13554); CSNK1G2 (Homo sapiens, UniProt P78368); PKN2 (Homo sapiens, UniProt Q16513).
Assay in all cases: biochemical
Common to all, as to set-up: DiscoveRx KINOMEscan active site-directed competition binding; percent of control kinase bound to immobilised ligand

The next experiment has as its target T1, DCAMKL2 (Homo sapiens, UniProt Q8N568).
T1 construct: gene DCLK2
T1 sequence (Q8N568 1-766): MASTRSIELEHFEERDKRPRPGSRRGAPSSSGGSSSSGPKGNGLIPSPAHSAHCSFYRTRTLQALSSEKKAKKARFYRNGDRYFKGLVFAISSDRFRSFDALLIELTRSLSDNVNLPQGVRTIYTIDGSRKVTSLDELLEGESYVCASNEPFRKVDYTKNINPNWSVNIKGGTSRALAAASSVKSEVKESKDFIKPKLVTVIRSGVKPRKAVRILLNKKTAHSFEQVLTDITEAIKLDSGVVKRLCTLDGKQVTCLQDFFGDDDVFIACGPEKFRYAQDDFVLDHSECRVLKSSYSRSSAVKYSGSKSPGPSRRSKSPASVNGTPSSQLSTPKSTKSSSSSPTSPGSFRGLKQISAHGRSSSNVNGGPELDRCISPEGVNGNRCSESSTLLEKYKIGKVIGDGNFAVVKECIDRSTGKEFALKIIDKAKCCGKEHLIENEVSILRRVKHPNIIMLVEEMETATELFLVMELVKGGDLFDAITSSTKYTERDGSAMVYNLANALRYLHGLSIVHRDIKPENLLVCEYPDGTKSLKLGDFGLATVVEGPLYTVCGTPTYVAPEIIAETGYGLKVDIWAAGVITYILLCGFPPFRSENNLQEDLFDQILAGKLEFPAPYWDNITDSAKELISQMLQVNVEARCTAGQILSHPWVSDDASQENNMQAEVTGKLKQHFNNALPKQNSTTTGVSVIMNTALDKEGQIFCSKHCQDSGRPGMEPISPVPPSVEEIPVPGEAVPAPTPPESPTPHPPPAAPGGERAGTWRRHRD

Another experiment deals with T2, RIOK1 (Homo sapiens, UniProt Q9BRS2).
T2 sequence (Q9BRS2 1-568): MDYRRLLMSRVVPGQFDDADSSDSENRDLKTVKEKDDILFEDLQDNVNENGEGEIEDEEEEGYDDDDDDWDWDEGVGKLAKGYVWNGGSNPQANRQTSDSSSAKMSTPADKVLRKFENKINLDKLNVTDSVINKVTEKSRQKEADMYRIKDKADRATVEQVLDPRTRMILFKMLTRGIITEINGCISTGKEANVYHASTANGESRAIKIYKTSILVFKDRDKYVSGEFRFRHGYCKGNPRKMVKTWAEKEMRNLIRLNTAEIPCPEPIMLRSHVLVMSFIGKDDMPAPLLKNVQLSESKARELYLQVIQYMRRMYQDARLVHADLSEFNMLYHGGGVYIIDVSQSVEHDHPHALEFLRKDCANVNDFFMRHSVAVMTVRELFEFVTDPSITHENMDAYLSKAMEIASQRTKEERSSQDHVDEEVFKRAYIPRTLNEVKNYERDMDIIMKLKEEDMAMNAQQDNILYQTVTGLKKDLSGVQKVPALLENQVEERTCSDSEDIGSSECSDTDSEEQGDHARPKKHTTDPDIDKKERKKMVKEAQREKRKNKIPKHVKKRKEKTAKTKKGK

The next experiment deals with T3, MST4 (Homo sapiens, UniProt Q9P289).
T3 construct: gene STK26

[1] abbreviates: read-out: Rucaparib / %Ctrl @ 10000nM, binding competition, % of control.
Setting [2] is: read-out: Talazoparib (BMN 673) / %Ctrl @ 10000nM.
Setting [3] is: read-out: Niraparib (MK-4827) / %Ctrl @ 10000nM.
Setting [4] is: read-out: Olaparib / %Ctrl @ 10000nM.

CAMK2B, sequence (Q13554 whole entry): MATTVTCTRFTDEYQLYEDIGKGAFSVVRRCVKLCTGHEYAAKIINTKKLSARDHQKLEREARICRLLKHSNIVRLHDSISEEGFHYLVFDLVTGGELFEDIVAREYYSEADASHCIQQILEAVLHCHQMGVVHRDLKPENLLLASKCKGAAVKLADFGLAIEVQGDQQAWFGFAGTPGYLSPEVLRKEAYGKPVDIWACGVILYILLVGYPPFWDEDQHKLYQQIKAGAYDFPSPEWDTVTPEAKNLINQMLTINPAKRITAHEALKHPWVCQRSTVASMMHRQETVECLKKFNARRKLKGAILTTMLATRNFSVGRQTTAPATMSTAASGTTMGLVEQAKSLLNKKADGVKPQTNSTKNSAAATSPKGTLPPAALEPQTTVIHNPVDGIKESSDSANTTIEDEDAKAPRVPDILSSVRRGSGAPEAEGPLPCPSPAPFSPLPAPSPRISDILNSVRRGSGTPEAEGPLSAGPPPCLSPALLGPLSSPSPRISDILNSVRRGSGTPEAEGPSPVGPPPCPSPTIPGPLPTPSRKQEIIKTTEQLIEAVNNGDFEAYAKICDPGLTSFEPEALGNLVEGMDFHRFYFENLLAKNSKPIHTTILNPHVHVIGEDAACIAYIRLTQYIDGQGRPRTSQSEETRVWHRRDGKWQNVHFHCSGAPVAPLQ
PKN2, sequence (Q16513 whole entry): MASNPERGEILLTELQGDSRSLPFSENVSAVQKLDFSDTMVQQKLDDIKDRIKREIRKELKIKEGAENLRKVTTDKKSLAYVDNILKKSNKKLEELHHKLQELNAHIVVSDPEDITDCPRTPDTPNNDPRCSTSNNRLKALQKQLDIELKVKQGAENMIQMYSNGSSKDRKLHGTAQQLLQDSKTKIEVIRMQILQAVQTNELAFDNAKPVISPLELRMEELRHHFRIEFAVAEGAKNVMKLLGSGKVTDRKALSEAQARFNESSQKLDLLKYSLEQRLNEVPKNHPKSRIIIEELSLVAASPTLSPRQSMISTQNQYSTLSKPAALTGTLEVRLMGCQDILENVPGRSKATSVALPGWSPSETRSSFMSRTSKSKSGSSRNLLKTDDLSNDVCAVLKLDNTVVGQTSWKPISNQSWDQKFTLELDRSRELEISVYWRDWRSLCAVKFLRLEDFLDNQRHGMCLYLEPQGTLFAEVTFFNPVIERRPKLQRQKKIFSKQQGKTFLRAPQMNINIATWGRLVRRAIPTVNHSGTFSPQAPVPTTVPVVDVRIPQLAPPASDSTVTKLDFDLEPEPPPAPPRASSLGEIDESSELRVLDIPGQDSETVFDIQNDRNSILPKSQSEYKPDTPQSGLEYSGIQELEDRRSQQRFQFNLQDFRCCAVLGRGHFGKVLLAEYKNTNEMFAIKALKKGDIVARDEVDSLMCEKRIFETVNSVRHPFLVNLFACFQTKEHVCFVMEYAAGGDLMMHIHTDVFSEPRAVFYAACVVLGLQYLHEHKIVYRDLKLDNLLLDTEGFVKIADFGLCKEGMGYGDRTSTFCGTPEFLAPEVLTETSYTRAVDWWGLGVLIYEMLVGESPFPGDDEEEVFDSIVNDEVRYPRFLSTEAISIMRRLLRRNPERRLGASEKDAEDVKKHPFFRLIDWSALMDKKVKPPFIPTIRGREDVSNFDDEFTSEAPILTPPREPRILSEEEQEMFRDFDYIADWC
CSNK1G2, sequence (P78368 whole entry): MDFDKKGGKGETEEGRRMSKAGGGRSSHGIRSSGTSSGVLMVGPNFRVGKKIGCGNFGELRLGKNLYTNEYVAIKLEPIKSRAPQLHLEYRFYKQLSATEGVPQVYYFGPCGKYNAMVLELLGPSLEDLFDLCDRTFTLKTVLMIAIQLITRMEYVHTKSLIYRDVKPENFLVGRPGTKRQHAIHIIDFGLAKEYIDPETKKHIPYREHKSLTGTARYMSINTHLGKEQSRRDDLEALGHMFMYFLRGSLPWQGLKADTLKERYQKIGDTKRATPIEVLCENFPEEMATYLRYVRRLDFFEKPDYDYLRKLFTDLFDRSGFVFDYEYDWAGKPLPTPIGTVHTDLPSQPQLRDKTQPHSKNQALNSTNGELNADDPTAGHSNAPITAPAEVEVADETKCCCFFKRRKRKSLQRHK
T3 sequence (Q9P289 whole entry): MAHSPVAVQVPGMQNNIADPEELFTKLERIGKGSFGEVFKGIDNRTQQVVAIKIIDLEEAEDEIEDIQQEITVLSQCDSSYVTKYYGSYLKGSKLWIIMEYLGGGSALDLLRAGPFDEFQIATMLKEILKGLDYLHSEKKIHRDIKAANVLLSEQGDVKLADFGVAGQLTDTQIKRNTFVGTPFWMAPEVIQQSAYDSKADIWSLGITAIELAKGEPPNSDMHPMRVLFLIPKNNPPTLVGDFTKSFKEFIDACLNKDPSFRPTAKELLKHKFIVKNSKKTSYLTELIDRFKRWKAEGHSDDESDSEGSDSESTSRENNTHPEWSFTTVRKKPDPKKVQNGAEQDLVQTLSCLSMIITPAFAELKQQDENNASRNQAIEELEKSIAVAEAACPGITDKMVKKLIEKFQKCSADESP

In the case of `CNCc1ccc(-c2[nH]c3cc(F)cc4c3c2CCNC4=O)cc1` [Rucaparib], the percent of control binding at 10 µM on CAMK2B (setting [1]) stood at 86%; on DCAMKL2 (setting [1]) it was 87%; at CSNK1G2 (setting [1]), 89%; on RIOK1 (setting [1]), 100%; on PKN2 (setting [1]) it was 99%; at MST4 (setting [1]), 67%.
As to `Cn1ncnc1[C@H]1c2n[nH]c(=O)c3cc(F)cc(c23)N[C@@H]1c1ccc(F)cc1` [Talazoparib], the percent of control binding at 10 µM on CAMK2B (setting [2]) is 92%; at DCAMKL2 (setting [2]), 100%; at CSNK1G2 (setting [2]) it was 91%; at RIOK1 (setting [2]) it was 100%; at PKN2 (setting [2]), 85%; at MST4 (setting [2]) it was 89%.
Turning to `NC(=O)c1cccc2cn(-c3ccc([C@@H]4CCCNC4)cc3)nc12` [Niraparib], the percent of control binding at 10 µM at CAMK2B (setting [3]) was 90%; at DCAMKL2 (setting [3]), 83%; on CSNK1G2 (setting [3]) it was 79%; at RIOK1 (setting [3]) it was 95%; on PKN2 (setting [3]), 95%; at MST4 (setting [3]), 64%.
Turning to `O=C(c1cc(Cc2n[nH]c(=O)c3ccccc23)ccc1F)N1CCN(C(=O)C2CC2)CC1` [Olaparib], the percent of control binding at 10 µM at CAMK2B (setting [4]) stood at 96%; on DCAMKL2 (setting [4]), 100%; at CSNK1G2 (setting [4]), 81%; at RIOK1 (setting [4]) it was 100%; at PKN2 (setting [4]), 100%; at MST4 (setting [4]) it was 91%.

The values are drawn from article PMC7026418, “The kinase polypharmacology landscape of clinical PARP inhibitors” (Scientific Reports, 2020).
